Laboratory results reported in patent publication US12629406B2, “Alterations in endothelin receptors following hemorrhage and resuscitation by centhaquin” (MIDWESTERN UNIVERSITY, priority 2018, dated 2026).

Test: Rat hemorrhagic shock, normal saline resuscitation: blood gases, hematocrit, lactate, MAP
Type: in vivo
Method: Animal Studies. Male Sprague-Dawley rats (340 to 380 g) (Envigo, Indianapolis, IN) were housed for at least 4 days in a room with controlled temperature (23±1° C.), humidity (50±10%) and light (6:00 A.M. to 6:00 P.M.) before being used. Food and water were made available continuously. Animal care and use for experimental procedures were approved by the Institutional Animal Care and Use Committee of the Midwestern University. All anesthetic and surgical procedures were in compliance with the guidelines established by the Animal Care Committee.
Determination of cardiovascular response. The animals were anesthetized with urethane dissolved in isotonic saline. Urethane was administered in a dose of 1.5 g per kg body weight via intraperitoneal injection. Urethane was selected as an anesthetic agent, because it produces long lasting (8-10 hours) anesthesia with minimal cardiovascular and respiratory system depression. It produces a level of surgical anesthesia characterized by preservation of cardiovascular reflexes (Maggi and Meli 1986). Briefly, anaesthetized rats were immobilized on a surgical board equipped with controlled heating pad. Blood PO2, Pco2 and pH, were maintained using a tracheotomy cannula connected to a rodent ventilator (Model 683, Harvard Apparatus Inc., Holliston, MA). MAP and HR were measured by cannulating the left femoral artery with pressure catheter SPR-320 (Millar Instruments), connected to the ML221 bridge amplifier (AD Instruments) through AEC-10C connector and the signals were acquired (1000 S^−1) using PowerLab 16/30 data acquisition system (Gulati et al. 2012; Pacher et al. 2008). A Perimed laser Doppler flow probe was placed in the renal medulla to measure blood perfusion and data was captured on PowerLab 16/30 data acquisition system. The left femoral vein was cannulated using PE 50 tubing (Clay Adams, Parsipanny, NJ) and secured for resuscitation.
Determination of arterial blood gases and base deficit. Baseline arterial blood pH, PO2, Pco2, Na^+, K^+ and lactate were monitored prior to induction of shock, 30 minutes after induction of shock, and 30 and 60 minutes following vehicle or centhaquin resuscitation. Blood samples (0.15 ml) were drawn from the arterial cannula using blood gas sampling syringes (Innovative Medical Technologies, Inc. Leawood, KS) and analyzed using a pHOx Ultra analyzer (Nova Biomedical Corporation, Waltham, MA). The base deficit was calculated using the formula (Davis et al. 1998; Paladino et al. 2008): SBD=0.9287×[HCO3^−−24.4+14.83×(pH-7.4)]
Induction of Hemorrhagic Shock. Hemorrhage was induced by withdrawing blood from the femoral artery at a rate of approximately 0.5 to 1 mL/min until a MAP of 35 mmHg was reached. This MAP was maintained for 30 minutes by further withdrawal of blood, if necessary. The hemorrhagic shock model used in the present study is a well-established rodent model of manageable pressure hemorrhage (Buehler et al. 2000; Gulati et al. 1997; Gulati and Sen 1998). The volume of blood loss was about approximately 8.0 ml in each rat and was similar in various groups, amounting to approximately 40% of the total blood. Measured hematocrit levels were similar in various groups. […]
Experimental design. […] Additional experiments were also carried out where the amount of norepinephrine (a very commonly used vasopressor during resuscitation) required to maintain MAP at 70 mmHg in normal saline (NS) or centhaquin (0.01 mg/kg) treated rats (volume equal to blood loss) was determined. […]

## Cc1cccc(N2CCN(CCc3ccc4ccccc4n3)CC2)c1 [centhaquin, 2-[2-(4-(3-methyphenyl)-1-piperazinyl)]ethyl-quinoline]
Centhaquin 0.01 and 0.10 mg/kg in normal saline
  effect on blood pH of hemorrhaged rats: significantly prevented the reduction of pH
Centhaquin 0.01 and 0.10 mg/kg, p<0.01
  MAP post resuscitation: significant increase
Normal saline model
  blood lactate levels compared to the saline group: decrease
  change in hematocrit after treatment: no change
Resuscitation with centhaquin in normal saline
  effect on hemorrhage-induced decrease in pCO2 and increase in pO2: not affected
